This is an account of results in publication PMC3267046 (Structure(London, England:1993), 2012).

What all share (format): binding
The target of one assay is T1, nfa33440 (Nocardia farcinica, UniProt Q5YUF0).
T1 construct: gene NFA_33440; full-length (density starting at residue 6)
T1 sequence (Q5YUF0 1-147): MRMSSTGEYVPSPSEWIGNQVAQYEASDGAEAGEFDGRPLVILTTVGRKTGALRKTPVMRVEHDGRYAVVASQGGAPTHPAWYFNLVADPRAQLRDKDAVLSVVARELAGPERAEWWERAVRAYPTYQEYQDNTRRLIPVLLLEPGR
Briefly: cocrystal structure, […] Å; HSQC NMR.

Another assay deals with T2, nfa18080 (Nocardia farcinica, UniProt Q5YYT7).
T2 construct: gene NFA_18080; full-length (density starts at residue 5)
T2 sequence (Q5YYT7 1-144): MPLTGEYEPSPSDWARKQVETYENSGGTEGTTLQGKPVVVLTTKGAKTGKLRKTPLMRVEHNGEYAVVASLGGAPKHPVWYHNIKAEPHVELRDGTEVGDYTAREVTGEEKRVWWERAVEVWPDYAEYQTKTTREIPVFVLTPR
Description: crystal structure, […] Å.

Assay [1] addresses T3, Ddn (deazaflavin-dependent nitroreductase, Rv3547) (Mycobacterium tuberculosis, UniProt P9WP15). Description: cocrystal structures (Holo-1 […] Å, Holo-2 […] Å); Trp fluorescence quenching Kd; HSQC NMR. The arrangement: […]; full-length Ddn / MBP-Ddn fusion (Kd).
The target of assay [2] is T3, Ddn (deazaflavin-dependent nitroreductase, Rv3547). Briefly: intrinsic tryptophan fluorescence quenching; also steady-state kinetics (KM […]). Also noted: full-length Ddn / MBP-Ddn fusion.

As usually defined, the Kd is the constant that tells how readily two partners part at equilibrium. High values mean a looser complex, low ones a tighter complex.

Structures are written as SMILES.

T3 sequence (P9WP15 whole entry, the tested form may be a part): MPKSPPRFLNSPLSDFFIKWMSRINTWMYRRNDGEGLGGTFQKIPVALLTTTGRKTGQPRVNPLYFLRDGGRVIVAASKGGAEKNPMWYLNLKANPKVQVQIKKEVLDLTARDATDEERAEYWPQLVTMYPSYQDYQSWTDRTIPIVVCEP

On to `C[C@H](OP(=O)(O)OC[C@@H](O)[C@@H](O)[C@@H](O)Cn1c2nc(=O)[nH]c(=O)c-2cc2ccc(O)cc21)C(=O)N[C@@H](CCC(=O)N[C@@H](CCC(=O)O)C(=O)O)C(=O)O` [F420], for which the “cocrystal structure, 1.80 Å; HSQC NMR” value on nfa33440 is “a cocrystal of nfa33440 with F420 confirmed that the overall structure and coenzyme binding are very similar”. Also, the “crystal structure, 1.50 Å” value at nfa18080 is given as “nfa18080 from N. farcinica, was solved by X-ray crystallography in the presence of F420”. In addition, the dissociation constant Kd in assay [1] is 1 µM.

The compound `O=[N+]([O-])c1cn2c(n1)OC[C@@H](OCc1ccc(OC(F)(F)F)cc1)C2` [PA-824, (6S)-2-nitro-6-[4-(trifluoromethoxy)benzyl]oxy-6,7-dihydro-5H-imidazo[2,1-b][1,3]oxazine] yielded a Kd in assay [2] of 31 µM.
